#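 Values below derive from 48-hour exposures of cells grown in 96-well plates, with endpoints linearly interpolated between the two concentrations bracketing the appropriate inhibition level. At the TGI there is no net growth.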
# How the values were obtained:
# Assay in all cases: NCI-60 cell line screen, 48 h
# [1] = test system: COLO 205 colon
# [2] = test system: ACHN renal
# [3] = test system: RPMI-8226 leukemia
# [4] = test system: U251 CNS
# [5] = test system: MCF7 breast
# [6] = test system: SNB-19 CNS
# [7] = test system: SK-MEL-28 melanoma
# [8] = test system: HCT-15 colon
# [9] = test system: SK-MEL-2 melanoma
# [10] = test system: NCI-H23 lung
# [11] = test system: OVCAR-5 ovarian
# [12] = test system: UO-31 renal
# [13] = test system: K-562 leukemia
# [14] = test system: DU-145 prostate
# [15] = test system: PC-3 prostate
# [16] = test system: MDA-MB-231 breast
# [17] = test system: M14 melanoma
# [18] = test system: RXF 393 renal
# [19] = test system: HCT-116 colon
# [20] = test system: OVCAR-8 ovarian
# [21] = test system: MDA-MB-435
# [22] = test system: NCI-H522 lung
# [23] = test system: EKVX NSCLC
# [24] = test system: HCC-2998 colon
# [25] = test system: A498 renal
# [26] = test system: SW-620 colon
# [27] = test system: OVCAR-4 ovarian
# [28] = test system: CCRF-CEM leukemia
# [29] = test system: KM12 colon
# [30] = test system: MDA-N
# [31] = test system: OVCAR-3 ovarian
# [32] = test system: SK-MEL-5 melanoma
# [33] = test system: NCI-H226 lung
# [34] = test system: 786-0 renal
# [35] = test system: TK-10 renal
# [36] = test system: MALME-3M melanoma
# [37] = test system: SF-268 CNS
# [38] = test system: SN12C renal
# [39] = test system: SR leukemia
# [40] = test system: SF-539 CNS
# [41] = test system: HOP-62 NSCLC
# [42] = test system: HOP-92 NSCLC
# [43] = test system: MOLT-4 leukemia
# [44] = test system: T-47D breast
# [45] = test system: A549 NSCLC
# [46] = test system: UACC-62 melanoma
# [47] = test system: HS 578T breast
# [48] = test system: HT29 colon
# [49] = test system: HL-60(TB) leukemia
# [50] = test system: SF-295 CNS
# [51] = test system: CAKI-1 renal
# [52] = test system: UACC-257 melanoma
# [53] = test system: LOX IMVI melanoma
# [54] = test system: SK-OV-3 ovarian
# [55] = test system: NCI/ADR-RES ovarian
# [56] = test system: NCI-H460 lung
smiles,measurement,setting,value
CCOC(=O)c1c(SCCCN2CCCCC2)n(-c2ccccc2)c(=S)n(-c2ccccc2)c1=O,TGI,[1],32 µM
same,TGI,[2],44.7 µM
same,TGI,[3],> 100 µM
same,TGI,[4],30.5 µM
same,TGI,[5],37.6 µM
same,TGI,[6],31.4 µM
same,TGI,[7],31.9 µM
same,TGI,[8],33.2 µM
same,TGI,[9],30.9 µM
same,TGI,[10],33.9 µM
same,TGI,[11],34.2 µM
same,TGI,[12],29.1 µM
same,TGI,[13],41.3 µM
same,TGI,[14],29.9 µM
same,TGI,[15],30 µM
same,TGI,[16],46.1 µM
same,TGI,[17],31.9 µM
same,TGI,[18],32.2 µM
same,TGI,[19],24.8 µM
same,TGI,[20],33.6 µM
same,TGI,[21],29.7 µM
same,TGI,[22],34.9 µM
same,TGI,[23],91.8 µM
same,TGI,[24],31.1 µM
same,TGI,[25],35.6 µM
same,TGI,[26],35.4 µM
same,TGI,[27],31.5 µM
same,TGI,[28],49.3 µM
same,TGI,[29],34 µM
same,TGI,[30],28.5 µM
same,TGI,[31],30.4 µM
same,TGI,[32],30.1 µM
same,TGI,[33],34 µM
same,TGI,[34],13.5 µM
same,TGI,[35],34.8 µM
same,TGI,[36],29.8 µM
same,TGI,[37],> 100 µM
same,TGI,[38],29.7 µM
same,TGI,[39],67 µM
same,TGI,[40],27.9 µM
same,TGI,[41],> 100 µM
same,TGI,[42],29.1 µM
same,TGI,[43],35 µM
same,TGI,[44],32.6 µM
same,TGI,[45],33.9 µM
same,TGI,[46],25.2 µM
same,TGI,[47],46.5 µM
same,TGI,[48],37.5 µM
same,TGI,[49],7.69 µM
COc1ccc2cc(C(=O)NCCCNC(=O)c3ccc4c(OC)c(OC)ccc4c3)ccc2c1OC,TGI,[1],> 100 µM
same,TGI,[50],> 100 µM
same,TGI,[51],> 100 µM
same,TGI,[2],> 100 µM
same,TGI,[52],> 100 µM
same,TGI,[3],> 100 µM
same,TGI,[4],> 100 µM
same,TGI,[5],> 100 µM
same,TGI,[6],> 100 µM
same,TGI,[53],> 100 µM
same,TGI,[7],> 100 µM
same,TGI,[8],> 100 µM
same,TGI,[9],> 100 µM
same,TGI,[10],> 100 µM
same,TGI,[54],> 100 µM
same,TGI,[11],> 100 µM
same,TGI,[12],> 100 µM
same,TGI,[13],> 100 µM
same,TGI,[14],> 100 µM
same,TGI,[15],> 100 µM
same,TGI,[16],> 100 µM
same,TGI,[18],> 100 µM
same,TGI,[19],> 100 µM
same,TGI,[21],> 100 µM
same,TGI,[22],> 100 µM
same,TGI,[23],> 100 µM
same,TGI,[24],> 100 µM
same,TGI,[25],> 100 µM
same,TGI,[26],> 100 µM
same,TGI,[27],> 100 µM
same,TGI,[55],> 100 µM
same,TGI,[28],> 100 µM
same,TGI,[29],> 100 µM
same,TGI,[30],> 100 µM
same,TGI,[31],> 100 µM
same,TGI,[32],> 100 µM
same,TGI,[56],> 100 µM
same,TGI,[34],> 100 µM
same,TGI,[37],> 100 µM
same,TGI,[38],> 100 µM
same,TGI,[39],> 100 µM
same,TGI,[41],> 100 µM
same,TGI,[43],> 100 µM
same,TGI,[44],> 100 µM
same,TGI,[45],> 100 µM
same,TGI,[46],> 100 µM
same,TGI,[48],> 100 µM

# From PubChem BioAssay (NCI)
